Test results published in ChEMBL document CHEMBL4811228, “Design, Synthesis, and Activity Evaluation of Novel Acyclic Nucleosides as Potential Anticancer Agents In Vitro and In Vivo” (J Med Chem, 2021).

Experiments:
SW480 = test: Antiproliferative activity against human SW480 cells assessed as reduction in cell viability incubated for 48 hrs by MTT assay; assay type: functional, cell-based; conditions: SW480, 48 h
HCT-116 = test: Antiproliferative activity against human HCT-116 cells assessed as reduction in cell viability incubated for 48 hrs by MTT assay; assay type: functional, cell-based; conditions: HCT-116, 48 h

Row | SMILES | IC50 (SW480) | IC50 (HCT-116)
1 | OCCCn1cnc2c(Cl)nc(F)nc21 | 29.7 µM | 39.8 µM
2 | CCCCCCCCC[C@H](CCOS(C)(=O)=O)n1cnc2c(Cl)ncnc21 | 9.72 µM | 9.48 µM
3 | CCCCCCCCC[C@H](CCN=[N+]=[N-])n1cnc2c(Cl)ncnc21 | 1.22 µM | 1.19 µM
4 | CCCCCCCC[C@@H](CCO)n1cnc2c(Cl)ncnc21 | 2.33 µM | 3.4 µM
5 | CCCCCCC[C@@H](CCO)n1cnc2c(Cl)ncnc21 | 3.82 µM | 10.7 µM
6 | CCCCCCC[C@H](CCO)n1cnc2c(Cl)ncnc21 | 2.93 µM | 2.67 µM
7 | CCCCCCCC[C@H](CCO)n1cnc2c(Cl)ncnc21 | 0.32 µM | 1.12 µM
8 | CCCCCCCCC[C@@H](CCO)n1cnc2c(Cl)ncnc21 | 3.62 µM | 1.05 µM
9 | CCCCCCCCC[C@H](CCO)n1cnc2c(Cl)ncnc21 | 1.63 µM | 0.45 µM
10 | CCCCCCCCC[C@H](CCOCP(=O)(OCC)OCC)n1cnc2c(Cl)ncnc21 | 5.57 µM | 10.9 µM
11 | CCCCCCCCC[C@H](CCn1cc(-c2ccccc2)nn1)n1cnc2c(Cl)ncnc21 | 8.57 µM | 8.13 µM
12 | CCCCCCCCC[C@H](CCCl)n1cnc2c(Cl)ncnc21 | 3.18 µM | 9.58 µM
13 | CCCCCCCCCC(CCO)n1cnc2c(N)nc(Cl)nc21 (racemic) | 12.2 µM | 14.8 µM
14 | CCCCCCCCC(CCO)n1c(Br)nc2c(Cl)ncnc21 (racemic) | 17.8 µM | 22.4 µM
15 | CCCCCC(CCO)n1cnc2cncnc21 (racemic) | > 50 µM | > 50 µM
16 | O=C(OCC(CCO)n1cnc2c(Cl)ncnc21)c1ccccc1 (racemic) | > 50 µM | > 50 µM
17 | CCCCCCCC(CCO)n1cnc2c(Cl)nc(F)nc21 (racemic) | 26.1 µM | 17.6 µM
18 | CCCCCCCCC(CCO)n1cnc2c(N)nc(Cl)nc21 (racemic) | 13.1 µM | 21 µM
19 | CCCCCC(CCO)n1cnc2c(Cl)nc(F)nc21 (racemic) | 7.44 µM | 8.66 µM
20 | CCCCCCCCCC(CCO)n1cnc2c(Cl)nc(F)nc21 (racemic) | 12.5 µM | 32 µM
21 | CCCCCCC(CCO)n1cnc2c(NC)ncnc21 (racemic) | > 50 µM | > 50 µM
22 | CCCCCC(CCO)n1cnc2c(Cl)nc(Cl)nc21 (racemic) | 6.01 µM | 6.17 µM
23 | CC(C)(C)[Si](C)(C)OCC(CCO)n1cnc2c(Cl)ncnc21 (racemic) | 31.7 µM | > 50 µM

Row | SMILES | IC50 (SW480) | IC50 (HCT-116)
24 | CCCCCC(CCO)n1cnc2c(N)nc(Cl)nc21 (racemic) | > 50 µM | > 50 µM
25 | CCCCCCC(CCO)n1cnc2c(N)nc(Cl)nc21 (racemic) | > 50 µM | > 50 µM
26 | CCCCCCCCC(CCO)n1cnc2c(N)ncnc21 (racemic) | 20.7 µM | 11.6 µM
27 | CCCCCCCC(CCO)n1c(Br)nc2c(Cl)ncnc21 (racemic) | 14.4 µM | 16.2 µM
28 | O=C(OCC(CCO)n1cnc2c(Cl)nc(F)nc21)c1ccccc1 (racemic) | 7.24 µM | 5.17 µM
29 | CCCCCCCCCCCC(CCO)n1cnc2c(N)nc(Cl)nc21 (racemic) | 17.8 µM | 19.9 µM
30 | CCCCCCCC(CCO)n1cnc2c(OC)ncnc21 (racemic) | 23.9 µM | 15.3 µM
31 | CCCCCCCC(CCO)n1cnc2c(N)ncnc21 (racemic) | > 50 µM | > 50 µM
32 | CCCCCC(CCO)n1cnc2c(OC)ncnc21 (racemic) | > 50 µM | > 50 µM
33 | CCCCCCC(CCO)n1cnc2c(OC)ncnc21 (racemic) | > 50 µM | > 50 µM
34 | OCCC(COCc1ccccc1)n1cnc2c(Cl)nc(F)nc21 (racemic) | 7.17 µM | 5.24 µM
35 | CCCCCCCC(CCO)n1cnc2c(N)nc(Cl)nc21 (racemic) | > 50 µM | > 50 µM
36 | CCCCCCCCCC(CCO)n1cnc2c(NC)ncnc21 (racemic) | 4.45 µM | 5.41 µM
37 | CCCCCCC(CCO)n1cnc2c(Cl)ncnc21 (racemic) | 16.7 µM | 11.9 µM
38 | CCCCCCCCCCCC(CCO)n1cnc2c(N(C)C)ncnc21 (racemic) | 11.8 µM | 12 µM
39 | CCCCCCCCCCCC(CCO)n1cnc2c(NC)ncnc21 (racemic) | 12.8 µM | 15.4 µM
40 | C=C(CO)C(CCCCCC)n1cnc2c(Cl)ncnc21 (racemic) | 32 µM | 30.2 µM
41 | CCCCCCCCCCC(CCO)n1cnc2c(NC)ncnc21 (racemic) | 12 µM | 12.7 µM
42 | CCCCCCCC(CCO)n1cnc2c(Cl)nc(Cl)nc21 (racemic) | 13.6 µM | 12.8 µM
43 | CCCCCCCCCC(CCO)n1cnc2c(OC)ncnc21 (racemic) | 3.25 µM | 2.53 µM
44 | CCC(CCO)n1cnc2c(Cl)ncnc21 (racemic) | > 50 µM | > 50 µM
45 | CCCCCCC(CCO)n1c(Br)nc2c(Cl)ncnc21 (racemic) | 14.1 µM | 16.1 µM
46 | CCCCCCCC(CCO)n1cnc2c(NC)ncnc21 (racemic) | 15.3 µM | 12.5 µM

Row | SMILES | IC50 (SW480) | IC50 (HCT-116)
47 | CCCCCCCCCC(CCO)n1cnc2c(Cl)nc(Cl)nc21 (racemic) | 36.3 µM | 32.6 µM
48 | CCCCCCCCC(CCO)n1cnc2c(Cl)ncnc21 (racemic) | 1.37 µM | 1.65 µM
49 | CCCCCCCCCCC(CCO)n1cnc2c(N(C)C)ncnc21 (racemic) | 3.32 µM | 5.49 µM
50 | CCCCCCCCCC(CCO)n1c(Br)nc2c(Cl)ncnc21 (racemic) | 25 µM | 26.9 µM
51 | CCCCCCCCCCCC(CCO)n1cnc2c(OC)ncnc21 (racemic) | 9.7 µM | 8.23 µM
52 | CCCCCCCCCCCC(CCO)n1cnc2c(N)ncnc21 (racemic) | 11.6 µM | 13.3 µM
53 | CC(C)(C)[Si](C)(C)OCC(CCO)n1cnc2c(Cl)nc(F)nc21 (racemic) | 8.02 µM | 7.78 µM
54 | CCCCCCC(CCO)n1cnc2c(Cl)nc(Cl)nc21 (racemic) | 12.4 µM | 12.1 µM
55 | OCCC(COCc1ccccc1)n1cnc2c(Cl)ncnc21 (racemic) | > 50 µM | > 50 µM
56 | CCCCCC(CCO)n1cnc2c(NC)ncnc21 (racemic) | > 50 µM | > 50 µM
57 | CCCCC(CCO)n1cnc2cncnc21 (racemic) | > 50 µM | > 50 µM
58 | CCCCCC(CCO)n1c(Br)nc2c(Cl)ncnc21 (racemic) | 23.8 µM | 18.3 µM
59 | CCCCCCCCC(CCO)n1cnc2c(N(C)C)ncnc21 (racemic) | 21.6 µM | 19.8 µM
60 | CCC(CCO)n1cnc2c(Cl)nc(F)nc21 (racemic) | 19.8 µM | 18.9 µM
61 | CC(CCO)n1cnc2c(Cl)nc(F)nc21 (racemic) | 16.8 µM | 19.8 µM
62 | CCCCCCCCCCC(CCO)n1cnc2c(Cl)ncnc21 (racemic) | 3.16 µM | 4.93 µM
63 | CCCCCCC(CCO)n1cnc2c(Cl)nc(F)nc21 (racemic) | 12.9 µM | 9.96 µM
64 | CCCCCCCCCCC(CCO)n1cnc2c(OC)ncnc21 (racemic) | 8.26 µM | 7.53 µM
65 | CCCCC(CCO)n1cnc2c(OC)ncnc21 (racemic) | > 50 µM | > 50 µM
66 | CCCCCC(CCO)n1cnc2c(N)ncnc21 (racemic) | > 50 µM | > 50 µM
67 | CCCCCC(CCO)n1cnc2c(Cl)ncnc21 (racemic) | > 50 µM | > 50 µM
68 | CCCCCCCCC(CCO)n1cnc2c(Cl)nc(F)nc21 (racemic) | 15 µM | 24.2 µM
69 | CCCCCCCCCCC(CCO)n1cnc2c(N)nc(Cl)nc21 (racemic) | 13.1 µM | 11.8 µM

Row | SMILES | IC50 (SW480) | IC50 (HCT-116)
70 | CCCCCCCCC(CCO)n1cnc2c(Cl)nc(Cl)nc21 (racemic) | 24 µM | 22.2 µM
71 | CCCCCCCCC(CCO)n1cnc2c(OC)ncnc21 (racemic) | 24.6 µM | 12.8 µM
72 | CC(CCO)n1cnc2c(Cl)ncnc21 (racemic) | > 50 µM | > 50 µM
73 | CCCCC(CCO)n1cnc2c(Cl)nc(Cl)nc21 (racemic) | 30.9 µM | 15.5 µM
74 | C=C(CO)C(CCCCC)n1cnc2c(Cl)ncnc21 (racemic) | > 50 µM | > 50 µM
75 | CCCC(CCO)n1cnc2c(Cl)ncnc21 (racemic) | > 50 µM | > 50 µM
76 | CCCCCCCCC(CCO)n1cnc2c(NC)ncnc21 (racemic) | 3.77 µM | 3.73 µM
77 | CCCCCCCCCC(CCO)n1cnc2c(N)ncnc21 (racemic) | 6.03 µM | 10.5 µM
78 | CCCCC(CCO)n1cnc2c(Cl)nc(F)nc21 (racemic) | 13.2 µM | 13.5 µM
79 | CCCCCCC(CCO)n1cnc2c(N)ncnc21 (racemic) | > 50 µM | > 50 µM
80 | CCCCCCC(CCO)n1cnc2c(N(C)C)ncnc21 (racemic) | > 50 µM | > 50 µM
81 | CCCCCCCCCCCCC(CCO)n1cnc2c(Cl)ncnc21 (racemic) | > 50 µM | > 50 µM
82 | C=C(CO)C(CCCCCCC)n1cnc2c(Cl)ncnc21 (racemic) | 29.4 µM | 22.4 µM
83 | CCCCCCCCCCCC(CCO)n1cnc2c(Cl)ncnc21 (racemic) | 5.29 µM | 7.59 µM
84 | CCCCC(CCO)n1cnc2c(N)ncnc21 (racemic) | > 50 µM | > 50 µM
85 | CCCCCCCCCC(CCO)n1cnc2c(N(C)C)ncnc21 (racemic) | 12.2 µM | 9.81 µM
86 | CCCC(CCO)n1cnc2c(Cl)nc(F)nc21 (racemic) | 17.2 µM | 16.5 µM
87 | CCCCCCCC(CCO)n1cnc2c(Cl)ncnc21 (racemic) | 3.63 µM | 4.16 µM
88 | CCCCCCCC(CCO)n1cnc2c(N(C)C)ncnc21 (racemic) | > 50 µM | > 50 µM
89 | CCCCC(CCO)n1cnc2c(Cl)ncnc21 (racemic) | > 50 µM | > 50 µM
90 | CCCCCCC(CCO)n1cnc2cncnc21 (racemic) | > 50 µM | > 50 µM
91 | CCCCCC(CCO)n1cnc2c(N(C)C)ncnc21 (racemic) | > 50 µM | > 50 µM
